The text below walks through data of ChEMBL document CHEMBL6121062, “Discovery, Optimization, and Preclinical Pharmacology of EP652, a METTL3 Inhibitor with Efficacy in Liquid and Solid Tumor Models” (J Med Chem, 2025).

The nature of data set [1]: Lipophilicity, logD of compound in 1-octanol/PBS at pH 7.4 incubated for 24 hrs by HPLC analysis. It is filed as physicochemical.
Data set [2] is described as follows: Unbound clearance in Sprague-Dawley rat at 1 mg/kg/day, iv measured for 24 hrs by LC-MS/MS analysis. The following applies: in vivo. In kind it is ADME, organism-based.
The test system of data set [3] is Kasumi 1. The experiment in a line: Antiproliferative activity against human Kasumi 1 cells assessed as inhibition of cell viability incubated for 72 hrs by ATPlite assay. It is filed as functional, cell-based. The note with it: Kasumi 1, 72 h.
The target in data set [4] is T1, METTL3/METTL14 (Homo sapiens, UniProt Q86U44). Description: Displacement of [3H]-SAM from METTL3/METTL14 (unknown origin) using 5'biotinylated-UACACUCGAUCUGGACUAAAGGUGCUC-3' RNA as substrate preincubated for 10 mins followed by substrate/[3H]-SAM addition measured after 90 mins by SPA. In kind it is protein-complex assay. A general note: In a radioligand displacement assay an active substance lowers the binding of a labelled ligand.
T1 sequence (Q86U44 whole entry): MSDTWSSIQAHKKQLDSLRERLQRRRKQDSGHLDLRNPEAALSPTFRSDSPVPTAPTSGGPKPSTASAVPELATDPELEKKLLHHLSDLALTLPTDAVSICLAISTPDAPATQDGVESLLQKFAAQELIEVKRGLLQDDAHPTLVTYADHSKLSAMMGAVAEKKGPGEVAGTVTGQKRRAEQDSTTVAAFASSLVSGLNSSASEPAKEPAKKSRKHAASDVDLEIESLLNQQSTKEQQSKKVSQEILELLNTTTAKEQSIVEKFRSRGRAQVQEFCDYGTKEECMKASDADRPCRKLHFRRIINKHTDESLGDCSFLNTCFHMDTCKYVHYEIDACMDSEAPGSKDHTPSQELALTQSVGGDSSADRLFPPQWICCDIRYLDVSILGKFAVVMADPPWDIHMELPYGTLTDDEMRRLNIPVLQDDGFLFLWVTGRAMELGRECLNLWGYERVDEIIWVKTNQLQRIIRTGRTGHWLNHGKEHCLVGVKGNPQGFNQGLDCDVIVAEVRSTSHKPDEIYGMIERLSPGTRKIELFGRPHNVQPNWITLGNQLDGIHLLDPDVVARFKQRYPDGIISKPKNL
T1 sequence (Q9HCE5 whole entry, further chain): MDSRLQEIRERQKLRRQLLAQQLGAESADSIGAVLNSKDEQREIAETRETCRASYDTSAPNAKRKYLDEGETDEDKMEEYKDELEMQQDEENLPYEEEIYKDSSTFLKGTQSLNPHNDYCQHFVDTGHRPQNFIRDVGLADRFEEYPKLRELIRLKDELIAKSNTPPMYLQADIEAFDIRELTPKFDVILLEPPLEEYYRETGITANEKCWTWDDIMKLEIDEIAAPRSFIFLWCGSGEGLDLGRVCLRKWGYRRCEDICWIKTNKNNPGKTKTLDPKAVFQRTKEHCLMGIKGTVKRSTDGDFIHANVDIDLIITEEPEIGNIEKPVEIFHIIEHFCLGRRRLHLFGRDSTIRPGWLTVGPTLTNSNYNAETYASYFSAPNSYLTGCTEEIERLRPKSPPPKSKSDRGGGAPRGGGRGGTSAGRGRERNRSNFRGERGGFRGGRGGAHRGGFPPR

Data set [5] is described as follows: Unbound fraction in Sprague-Dawley rat plasma at 1 mg/kg/day, iv measured for 24 hrs by LC-MS/MS analysis. The note with it: in vivo. In kind it is ADME, organism-based.
Data set [6] is described as follows: Unbound AUC in Sprague-Dawley rat at 1 mg/kg/day, iv measured for 24 hrs by LC-MS/MS analysis. The note with it: in vivo. In kind it is ADME, organism-based.
Data set [7] can be described thus: Half life in rat liver microsomes. In kind it is ADME, Microsome. (Liver microsomes are a subcellular fraction often used to study metabolism.)
Data set [8] deals with Cytochrome P450 3A4 (Homo sapiens, UniProt P08684). Description: Inhibition of CYP3A4 (unknown origin). It is filed as ADME.
Chain of Cytochrome P450 3A4 (P08684 whole entry): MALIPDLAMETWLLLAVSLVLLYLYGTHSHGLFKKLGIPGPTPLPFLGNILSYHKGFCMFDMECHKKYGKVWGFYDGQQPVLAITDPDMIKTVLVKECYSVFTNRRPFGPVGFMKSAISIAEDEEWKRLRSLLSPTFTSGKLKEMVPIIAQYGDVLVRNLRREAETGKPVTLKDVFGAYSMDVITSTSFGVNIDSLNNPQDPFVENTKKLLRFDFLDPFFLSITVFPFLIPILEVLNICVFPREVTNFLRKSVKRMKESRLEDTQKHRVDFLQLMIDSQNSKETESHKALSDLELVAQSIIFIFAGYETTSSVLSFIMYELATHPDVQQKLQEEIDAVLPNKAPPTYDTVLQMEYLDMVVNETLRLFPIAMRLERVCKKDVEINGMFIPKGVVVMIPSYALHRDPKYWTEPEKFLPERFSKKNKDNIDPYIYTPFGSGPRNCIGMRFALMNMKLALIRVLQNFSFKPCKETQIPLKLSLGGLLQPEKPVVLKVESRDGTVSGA
Data set [9] addresses T1, METTL3/METTL14. Description: Inhibition of METTL3/METTL14-mediated m6A mRNA expression in human Calu-6 cells incubated for 24 hrs by LC-MS/MS analysis. In kind it is cell-based.

In data set [1], `COc1cncc(-n2cc(C(C)n3ccc(N4CCC[C@@H](NCC5CCC5)C4)cc3=O)cn2)c1` (some centres not stated) came in with a logD at 24 h of 1.6. The compound also came in with a CL free in [2] of 608 mL/min/kg. Besides, the results for the IC50 in [3] and in data set [4] were 306 nM and 1 nM, respectively.

On to `CCC(c1ccc(N2CCC[C@@H](NCC3CCC3)C2)nn1)n1cc(-c2cncc(OC)c2)nn1` (some centres not stated), for which the logD at 24 h in data set [1] worked out at 1.9. Also, the Fu in data set [5] was 11.2%. The half-maximal inhibitory concentration (IC50) in data set [3] was determined as 6000 nM; in data set [4] it was 31 nM.

`CC(n1cc(-c2cncc(-n3cccn3)c2)nn1)n1ccc(N2CCC[C@@H](NCC3CCC3)C2)cc1=O` (some centres not stated) yielded a pH-dependent lipophilicity (logD) at 24 h in data set [1] of 1.8. For the same compound, the fAUC in data set [6] was 3.3 µM·min. Further, the CL free in [2] is 529 mL/min/kg. The IC50 in data set [3] stood at 301 nM; in [4], 2 nM.

With `CC(n1cc(-c2cncc(N3CCCC3)c2)nn1)n1ccc(N2CCC[C@@H](NCC3CC3)C2)cc1=O` (some centres not stated), in data set [1], the logD at 24 h was 1.93. In data set [6], this compound showed a fAUC of 1.3 µM·min. The compound further had a CL free in [2] of 1487 mL/min/kg. Further, the IC50 in data set [3] amounted to 11 nM; in [4], 3 nM.

Compound `CC(n1cc(-c2cncc(N3CCCC3)c2)nn1)n1ccc(N2CCC[C@@H](NCC3CCC3)C2)cc1=O` (some centres not stated) showed a logD at 24 h in [1] of 2.49. The fAUC in data set [6] was determined as 1 µM·min. Besides, the CL free in data set [2] was determined as 1913 mL/min/kg. In addition, the figures for the half-inhibitory concentration (IC50) in data set [3] and in data set [4] were 7 nM and 2 nM, respectively.

Consider `CC(n1cc(-c2cncc(N(C)C)c2)nn1)n1ccc(N2CCC[C@@H](NCC3CCC3)C2)cc1=O` (some centres not stated), for which the pH-dependent lipophilicity (logD) at 24 h in data set [1] was 1.79. This compound also returned a fAUC in data set [6] of 2.2 µM·min. The same compound showed a CL free in data set [2] of 803 mL/min/kg. For the same compound, in data set [3], the IC50 was 44 nM.

Compound `CCOc1cncc(-c2cn(C(C)n3ccc(N4CCC[C@@H](NCC5CCC5)C4)cc3=O)nn2)c1` (some centres not stated) had a logD at 24 h in data set [1] of 2.07. This compound also came in with a fAUC in [6] of 2.1 µM·min. The CL free in data set [2] is 1112 mL/min/kg. In addition, the half-inhibitory concentration (IC50) was found to be 302 nM in data set [3] and 2 nM in [4].

In turn, `COc1cncc(-c2cn([C@H](C)n3ccc(N4CCC[C@@H](NCC5CCC5)C4)cc3=O)nn2)c1` returned a pH-dependent lipophilicity (logD) at 24 h in data set [1] of 1.5. The compound further displayed a Fu in [5] of 17.4%. The same compound came in with a fAUC in data set [6] of 3.8 µM·min. This compound came in with a CL free in [2] of 645 mL/min/kg. For the same compound, the half-maximal inhibitory concentration (IC50) in [3] was found to be 489 nM; in [4], 2 nM.

`COc1cc(-c2cn(Cc3ccc(N4CCC[C@@H](NCC5CCC5)C4)nn3)nn2)c2cn[nH]c2c1`: in [1], the pH-dependent lipophilicity (logD) at 24 h turned out to be 1.89. Further, the half-life in data set [7] stood at 16 min. For the same compound, the IC50 in [8] was roughly 800 nM; in [3] it was 629 nM; in [4] it was 2 nM; in data set [9] it was 100 nM.

With `COc1cncc(-c2nnc(C(C)n3ccc(N4CCC[C@@H](NCC5CCC5)C4)cc3=O)s2)c1` (some centres not stated), in [1], the log distribution coefficient (logD) at 24 h was 1.45. For the same compound, the CL free in [2] was 480 mL/min/kg. In addition, the IC50 amounted to 506 nM in data set [3] and 3 nM in data set [4].

Consider `COc1cncc(-c2cn(C(C)c3ccc(N4CCC[C@@H](NCC5CCC5)C4)cn3)nn2)c1` (some centres not stated), for which the log distribution coefficient (logD) at 24 h in [1] came to 1.65. For the same compound, the Fu in data set [5] amounted to 14.1%. In [6], this compound registered a fAUC of 10.9 µM·min. In data set [2], the CL free was found to be 263 mL/min/kg. Moreover, the IC50 in [3] is 2100 nM; in [4], 4 nM.

Compound `COc1cncc(-c2cn(C(C)c3ccc(N4CCC[C@@H](NCC5CCC5)C4)nn3)nn2)c1` (some centres not stated) had a logD at 24 h in data set [1] of 1.62. For the same compound, the Fu in data set [5] came to 14%. Besides, the fAUC in [6] was found to be 5.3 µM·min. The CL free in data set [2] turned out to be 423 mL/min/kg. The concentration for half-maximal inhibition (IC50) turned out to be 904 nM in data set [3] and 4 nM in [4].

In the case of `COc1cncc(-c2cn(C(C)n3ccc(N4CCC[C@@H](NCC5CCC5)C4)cc3=O)cn2)c1` (some centres not stated), in data set [1], the log distribution coefficient (logD) at 24 h was found to be 1.52. Further, the CL free in [2] turned out to be 487 mL/min/kg. In data set [3], the half-maximal inhibitory concentration (IC50) came to 453 nM.

Consider `COc1cncc(-c2cn(Cc3ccc(N4CCC[C@@H](NCC5CCC5)C4)cn3)nn2)c1`, for which the logD at 24 h in [1] stood at 1.21. The same compound displayed a Fu in data set [5] of 8.9%. This compound yielded a fAUC in data set [6] of 2.4 µM·min. Besides, the CL free in data set [2] is 934 mL/min/kg. Besides, the values for the IC50 in data set [3] and in data set [4] were 894 nM and 4 nM, respectively.

Take `COc1cc(-c2cn(C(C)n3ccc(N4CCC[C@@H](NCC5CCC5)C4)cc3=O)nn2)c2cn[nH]c2c1` (some centres not stated): the logD at 24 h in data set [1] is 2.13. In addition, in data set [6], the fAUC amounted to 0.9 µM·min. The same compound gave a CL free in [2] of 2269 mL/min/kg. The IC50 in data set [3] was determined as 437 nM; in data set [4], 2 nM.

In the case of `C[C@@H](n1cc(-c2cncc(N3CCCC3)n2)nn1)n1ccc(N2CCC[C@@H](NCC3CC3)C2)cc1=O`, the log distribution coefficient (logD) at 24 h in data set [1] worked out at 1.6. This compound also registered a fAUC in data set [6] of 4.7 µM·min. In addition, the CL free in data set [2] is 443 mL/min/kg. For the same compound, the IC50 in data set [3] was determined as 13 nM; in data set [4] it was 1 nM.

In the case of `CC(n1cc(-c2cncc(N(C)C)n2)nn1)n1ccc(N2CCC[C@@H](NCC3CCC3)C2)cc1=O` (some centres not stated), the logD at 24 h in [1] is 1.69. Also, the fAUC in [6] stood at 4.7 µM·min. Also, the CL free in data set [2] is 449 mL/min/kg. Besides, the 50% inhibitory concentration (IC50) in data set [3] came to 35 nM; in data set [4] it was 1 nM.

With `COc1cncc(-c2cn(Cc3ccc(N4CCC[C@@H](NCC5CCC5)C4)nn3)nn2)c1`, the pH-dependent lipophilicity (logD) at 24 h in data set [1] was 1.47. Also, the Fu in data set [5] amounted to 11.1%. The fAUC in [6] was found to be 5.7 µM·min. In [2], the CL free was 596 mL/min/kg. Also, the half-maximal inhibitory concentration (IC50) stood at 1930 nM in [3] and 6 nM in [4].

In the case of `COc1cncc(-c2cn(C(C)n3ccc(N4CCC[C@@H](NCC5CCC5)C4)cc3=O)nn2)n1` (some centres not stated), in data set [1], the logD at 24 h amounted to 1.65. In addition, the fAUC in data set [6] was determined as 6.1 µM·min. In addition, the CL free in data set [2] was found to be 413 mL/min/kg. In addition, the half-inhibitory concentration (IC50) stood at 656 nM in [3] and 3 nM in data set [4].

In turn, `COc1cncc(-c2cn(C(C)(C)c3ccc(N4CCC[C@@H](NCC5CCC5)C4)nn3)nn2)c1` yielded a logD at 24 h in data set [1] of 1.69. Further, the Fu in data set [5] came out at 15.3%. The same compound displayed a fAUC in data set [6] of 4.9 µM·min. The CL free in [2] was 421 mL/min/kg. Moreover, the 50% inhibitory concentration (IC50) came to 2070 nM in data set [3] and 6 nM in data set [4].

Take `CC(n1cc(-c2cncc(N(C)C)n2)nn1)n1ccc(N2CCC[C@@H](NCC3CC3)C2)cc1=O` (some centres not stated): in data set [1], the logD at 24 h came to 1.17. In [6], this compound displayed a fAUC of 5.2 µM·min. Further, in [2], the CL free worked out at 369 mL/min/kg. Further, the half-inhibitory concentration (IC50) in [3] amounted to 96 nM; in [4], 1 nM.

With `COc1cncc(-c2cn(Cn3ccc(N4CCC[C@@H](NCC5CCC5)C4)cc3=O)nn2)c1`, the logD at 24 h in data set [1] was found to be 1.51. The compound also displayed a Fu in [5] of 9.3%. In data set [6], this compound yielded a fAUC of 2.7 µM·min. The CL free in data set [2] was found to be 854 mL/min/kg. Besides, the IC50 in [3] came to 1100 nM; in data set [4] it was 3 nM.

The logD is the decadic logarithm of the distribution of all forms, ionised or not, between an organic phase and buffer at a given pH. In general, IC50 refers to the concentration needed to halve the response being measured. The half-life is how long it takes for the measured level to halve. A higher half-life goes with slow loss.
